Assay results from paper PMC8767159, “Multiparameter Optimization of Trypanocidal Cruzain Inhibitors With In Vivo Activity and Favorable Pharmacokinetics” (Frontiers in Pharmacology, 2022).
Read-outs that look alike come from different tables or passages of the source.

Tests used:
[1] = In vitro metabolic stability in mouse liver microsomes; type: in vitro ADME; conditions: mouse, liver microsomes
Method: Isolated mouse (BD Gentest, Bedford, MA) and human liver microsomes (XenoTech, Kansas City, KS) ([Plant, 2004]) were added at a final concentration of 0.25 mg/ml to a solution containing 40 mM dibasic potassium phosphate and 10 mM monobasic potassium phosphate. Stock solutions of compounds at 5 mM were prepared in 100% DMSO. A 50:50 quenching solution of acetonitrile (ACN) and methanol (MeOH) was prepared. An NADPH solution was prepared at 10 mM. The preparations containing the microsomes were added to each well of the incubation plate (450 µl), which was then heated to 37°C for 10 min. The compounds were added to the respective wells of the test plate (2 µl). Then, 300 µl of the microsome preparation was added to each well of the test plate. The test plate was heated under gentle rotation for 5 min at 37°C. Next, 90 µl of the mixture contained in the test plate was added to the incubation plate, making a final volume of 540 µl. Samples were collected at the following incubation times: 0, 5, 10, 15, 20, and 30 min. To the 0 min sample plate, quenching solution (180 µl), NADPH (6 µl), and the incubation plate mixture (54 µl) were added to each well. The sample plate was then sealed, homogenized, and stored at 4°C. Then, 54 µl of the NADPH solution was added to the incubation plate, which was homogenized. Before the collection of each sample at the established times, 45 µl of the quenching solution was added to each well of the corresponding sample plates. After reaching the incubation times, 60 µl of the mixture contained in the incubation plate was added to the corresponding sample plates. The sample plates were then sealed and stored at 4°C. After the collection of the last sample (30 min), all sample plates were centrifuged at 3,800 rpm for 30 min. The supernatant from each well was collected and transferred to clean plates for mass spectrometry. Five to 10 µl of each sample was injected into an AB Sciex Triple Quad 5500 LC-MS/MS instrument.
For the biotransformation experiments and analysis of metabolites in microsomes, an Ultra-High-Pressure Liquid Chromatography instrument (UHPLC, Thermo Accela, Waltham, MA) ([Spaggiari et al., 2014]) connected to an automatic sample injector and a 1250 series pump was used. The UHPLC system was connected to a Thermo Fisher (Waltham, MA) LTQ Orbitrap mass spectrometer. For all other analyses, an AB Sciex Triple Quad 5500 coupled to a UHPLC equipped with a UV 1290 diode detector (Agilent Technologies, Santa Clara, CA) and a CTC PAL self-collecting system (LEAP Technologies, Carrboro, NC) was used. Q1 MS positive ion mode (300–500 Da) was used to detect the ions of the parent compounds. The UV detector was operated in spectral mode (250–280 nm). A Hypersil Gold C18 (2.1 mm × 100 mm, 1.9 µm, Thermo Fisher) HPLC column was used. The mobile phases were solvent A (0.1% formic acid in water) and solvent B (0.1% formic acid in ACN). The flow was adjusted to 0.55 ml/min, and the injection volume was adjusted to […]. The gradient started with 1% solvent B for 0.4 min, reached 40% (solvent B) in 2.3 min and 95% (solvent B) in 0.67 min, was maintained for 0.5 min, and returned to the initial condition of 1%. This condition was maintained for 1 min before injection of the next sample. The peak area ratio (peak area of the test compounds/peak area of the control compounds) was converted to the percentage of remaining compound, with the 0 min time point ratio set to 100%. T½ and CLint were calculated from the percentage of remaining compound versus the incubation time. From the resulting function, the slope (k) was determined. The equations T1/2 (min) = ln(2)/k and CLint in vitro (μL/min/mg) = k*1000/0.25 were used to determine T½ and CLint.

[2] = system: T. cruzi intracellular amastigotes; test: Assay against T. cruzi intracellular amastigotes (Tulahuen lacZ strain in HFF-1 fibroblasts); type: cell-based, Trypanosoma cruzi; conditions: for IC50: Trypanosoma cruzi
Method: Biological assays against T. cruzi intracellular amastigotes were performed as reported previously using the T. cruzi Tulahuen strain, which is genetically engineered to express the E. coli β-galactosidase gene lacZ ([Buckner et al., 1996]). β-Galactosidase catalyzes a colorimetric reaction with chlorophenol red β-D-galactopyranoside (CPRG, Sigma Chemical Co., St. Louis, MO) as the substrate. The assays were conducted in 96-well tissue culture plates, and the compounds to be tested were prepared in 100% DMSO. Epimastigotes were maintained in liver infusion tryptone (LIT) enriched with 10% fetal calf serum (FCS), streptomycin, and penicillin at 28°C. Epimastigotes were converted to trypomastigotes by incubation in Grace’s insect medium (Sigma–Aldrich, St. Louis, MO) enriched with 10% FCS at 28°C. Human HFF-1 fibroblasts were seeded at 2 × 10^3/well in 80 μl of RPMI 1640 without phenol red and incubated overnight at 37°C and 5% CO2. Trypomastigotes were seeded at 1.0 × 10^4/well in 20 μl of RPMI 1640, and the plates were incubated at 37°C and 5% CO2. The next day, the synthesized compounds were added (50 μl) in 3-fold serial dilutions at concentrations ranging from 0.4 to 300 μM, and the plates were incubated at 37°C and 5% CO2. Each compound concentration was assayed in triplicate. After 120 h, 50 μl of chlorophenol red β-D-galactopyranoside (CPRG, Sigma–Aldrich) and IGEPAL CA-630 (Sigma–Aldrich) at a final concentration of 0.1% were added. The absorbance was measured at a wavelength of 570 nm in an automated microplate reader. The data were transferred to SigmaPlot 10.0 (Systat Software Inc., Erkrath, Germany) to determine the IC50 values. Benznidazole (BZ, Sigma–Aldrich) was used as a positive control, and untreated wells (100% parasite growth) were used as negative controls in all plates. All compounds were tested in three independent assays.

[3] = Fraction unbound by equilibrium dialysis; type: in vitro ADME; conditions: pH 7.4
Method: The fraction unbound (fu) ([Masimirembwa et al., 2003]) of the test compounds was determined after incubation with different media, namely, plasma, microsomes, and buffer with 10% FCS. Equilibrium dialysis was performed in a 96-well plate (HT-Dialysis, Gales Ferry, CT) in which each well was divided by a semipermeable membrane (12–14 kDa cutoff). The test compounds diluted in either plasma, microsome suspension, or buffer were added to one side of the membrane. Potassium phosphate buffer (50 mM, pH 7.4) was added to the other side of the membrane. A standard curve was used to calculate the compound concentration (fu) on each side of the membrane. Stock solutions of each compound were prepared in 100% DMSO to obtain a final concentration of 1 mM. The following compound concentrations were used: 1, 2, 20, 200, 2,000 and 5,000 nM. To 500 μl of medium, 0.5 μl of the compound stock solution was added, and this was applied to one side of the well. Each compound was evaluated in triplicate. Next, the plate was assembled, sealed, and incubated at 37°C under rotation (150 rpm) for 4 h. After the incubation period, the plates were subjected to LC-MS/MS.

[4] = Table S5, CLint/fu, read-out: CLint_u (L/h/kg) Mouse (converted)
[5] = Table S5, read-out: CLint (L/h/kg) Mouse (converted)
[6] = HFF-1, 120 h, Table 3, 120 h, mean ± SD of three assays
[7] = Table 5, CLint/fu, read-out: CLint_u (L/h/kg) mouse (converted)
[8] = Table 5, read-out: CLint (L/h/kg) mouse (converted)
[9] = Table 5, fraction unbound used to correct CLint
[10] = Table 6, fraction unbound used to correct plasma clearance
[11] = HFF-1, Table 4, mean ± SD of three assays

SMILES: COc1ccc2cc(OCC(=O)NCCc3nc4ccccc4[nH]3)ccc2c1 [Compound 12]
- CLint scaled at 5 µM [1, 4]: 1610 L/h/kg
- CLint scaled at 5 µM [1, 5]: 177 L/h/kg
- IC50 [2, 6]: 16.6 ± 2.4 µM

SMILES: O=C(COc1ccc(N2C(=O)CCC2=O)cc1)NCCc1nc2ccccc2[nH]1 [Compound 4]
- CLint scaled at 5 µM [1, 4]: 20.9 L/h/kg
- CLint scaled at 5 µM [1, 5]: 20.8 L/h/kg
- fraction unbound at 4 h, 1 µM ([3]; Table S5, fraction unbound): 0.99

SMILES: C=CCCn1c(CCNC(=O)COc2ccccc2Cl)nc2ccccc21 [Compound 38]
- CLint scaled at 5 µM [1, 7]: 2030 L/h/kg
- CLint scaled at 5 µM [1, 8]: 934 L/h/kg
- fraction unbound at 4 h, 1 µM [3, 9]: 0.5
- fraction unbound at 4 h, 1 µM [3, 10]: 0.01
- IC50 [2, 11]: 11.1 ± 3.19 µM

SMILES: O=C(COc1ccccc1)NCCc1nc2ccccc2n1-c1ccccc1 [Compound 30]
- CLint scaled at 5 µM [1, 4]: 1130 L/h/kg
- CLint scaled at 5 µM [1, 5]: 713 L/h/kg
- fraction unbound at 4 h, 1 µM ([3]; Table S5, fraction unbound): 0.63

SMILES: O=C(COc1ccccc1)NCCc1nc2ccccc2n1CCCOc1ccccc1 [Compound 24]
- CLint scaled at 5 µM [1, 4]: 1850 L/h/kg
- CLint scaled at 5 µM [1, 5]: 501 L/h/kg
- fraction unbound at 4 h, 1 µM ([3]; Table S5, fraction unbound): 0.27
- IC50 [2, 6]: 1.43 ± 0.4 µM
- IC50 [2, 11]: 1.43 ± 0.4 µM

SMILES: O=C(CCc1ccccc1Br)NCCc1nc2ccccc2[nH]1 [Compound 36]
- CLint scaled at 5 µM [1, 7]: 935 L/h/kg
- CLint scaled at 5 µM [1, 8]: 705 L/h/kg
- fraction unbound at 4 h, 1 µM [3, 9]: 0.8
- fraction unbound at 4 h, 1 µM [3, 10]: 0.04

SMILES: O=C(COc1ccc(Br)cc1)NCCc1nc2ccccc2[nH]1 [Compound 33]
- CLint scaled at 5 µM [1, 7]: 193 L/h/kg
- CLint scaled at 5 µM [1, 8]: 161 L/h/kg
- fraction unbound at 4 h, 1 µM [3, 9]: 0.8
- fraction unbound at 4 h, 1 µM [3, 10]: 0.16
- IC50 [2, 11]: 6.68 ± 2.35 µM

SMILES: N#Cc1ccccc1OCC(=O)NCCc1nc2ccccc2[nH]1 [Compound 31]
- CLint scaled at 5 µM [1, 7]: 87.9 L/h/kg
- CLint scaled at 5 µM [1, 8]: 74.6 L/h/kg
- fraction unbound at 4 h, 1 µM [3, 9]: 0.9
- fraction unbound at 4 h, 1 µM [3, 10]: 0.15

SMILES: Cc1ccccc1OCC(=O)NCCc1nc2ccccc2n1CCOc1ccccc1Br [Compound 22]
- CLint scaled at 5 µM [1, 5]: 487 L/h/kg
- fraction unbound at 4 h, 1 µM ([3]; Table S5, fraction unbound): 0.03

SMILES: O=C(COc1ccccc1)NCCc1nc2ccccc2[nH]1 [Compound 1]
- CLint scaled at 5 µM [1, 4]: 72.1 L/h/kg
- CLint scaled at 5 µM [1, 5]: 72.1 L/h/kg
- fraction unbound at 4 h, 1 µM ([3]; Table S5, fraction unbound): 1
- fraction unbound at 4 h, 1 µM ([3]; Table S6, fraction unbound used to correct plasma clearance): 0.23
- IC50 [2, 6]: 3.9 ± 0.3 µM
- IC50 [2, 11]: 3.9 ± 0.3 µM

SMILES: O=C(COc1ccccc1)NCCc1nc2ccccc2n1CCOc1ccccc1 [Compound 20]
- CLint scaled at 5 µM [1, 4]: 1200 L/h/kg
- CLint scaled at 5 µM [1, 5]: 489 L/h/kg
- fraction unbound at 4 h, 1 µM ([3]; Table S5, fraction unbound): 0.41
- IC50 [2, 6]: 2.04 ± 0.6 µM
- IC50 [2, 11]: 2.04 ± 0.6 µM

SMILES: Cn1c(CCNC(=O)COc2ccccc2)nc2ccccc21 [Compound 25]
- CLint scaled at 5 µM [1, 4]: 123 L/h/kg
- CLint scaled at 5 µM [1, 5]: 122 L/h/kg
- fraction unbound at 4 h, 1 µM ([3]; Table S5, fraction unbound): 0.99
- IC50 T. cruzi (μM) ([2]; Table 3, 120 h, mean ± SD of three assays): inactive
- IC50 [2, 6]: ~100 µM

SMILES: Cc1ccccc1OCC(=O)NCCc1nc2ccccc2o1 [Compound 37]
- CLint scaled at 5 µM [1, 7]: 874 L/h/kg
- CLint scaled at 5 µM [1, 8]: 745 L/h/kg
- fraction unbound at 4 h, 1 µM [3, 9]: 0.9
- fraction unbound at 4 h, 1 µM [3, 10]: 0.05
- IC50 [2, 11]: 2.9 ± 0.66 µM

SMILES: O=C(COc1cccc(NC(=O)CCCO)c1)NCCc1nc2ccccc2[nH]1 [Compound 7]
- CLint scaled at 5 µM [1, 4]: 8.19 L/h/kg
- CLint scaled at 5 µM [1, 5]: 8.19 L/h/kg
- fraction unbound at 4 h, 1 µM ([3]; Table S5, fraction unbound): 1

SMILES: O=C(COc1ccccc1Br)NCCc1nc2ccccc2n1CCOc1ccccc1Br [Compound 23]
- CLint scaled at 5 µM [1, 5]: 300 L/h/kg
- fraction unbound at 4 h, 1 µM ([3]; Table S5, fraction unbound): 0.04

SMILES: O=C(COc1ccc2c(C(=O)O)cccc2c1)NCCc1nc2ccccc2[nH]1 [Compound 15]
- CLint scaled at 5 µM [1, 4]: 12.9 L/h/kg
- CLint scaled at 5 µM [1, 5]: 12.9 L/h/kg
- fraction unbound at 4 h, 1 µM ([3]; Table S5, fraction unbound): 1

SMILES: COCCn1c(CCNC(=O)COc2ccccc2)nc2ccccc21 [Compound 29]
- CLint scaled at 5 µM [1, 4]: 235 L/h/kg
- CLint scaled at 5 µM [1, 5]: 235 L/h/kg
- fraction unbound at 4 h, 1 µM ([3]; Table S5, fraction unbound): 1

SMILES: O=C(COc1cccc(N2C(=O)CCC2=O)c1)NCCc1nc2ccccc2[nH]1 [Compound 6]
- CLint scaled at 5 µM [1, 4]: 217 L/h/kg
- CLint scaled at 5 µM [1, 5]: 217 L/h/kg
- fraction unbound at 4 h, 1 µM ([3]; Table S5, fraction unbound): 1

SMILES: O=C(COc1ccccc1)NCCc1nc2ccccc2n1CCOc1ccccc1Br [Compound 19]
- CLint scaled at 5 µM [1, 4]: 2580 L/h/kg
- CLint scaled at 5 µM [1, 5]: 305 L/h/kg
- fraction unbound at 4 h, 1 µM ([3]; Table S5, fraction unbound): 0.12

SMILES: O=C(COc1ccccc1)NCCc1nc2ccccc2n1CCOCc1ccccc1 [Compound 21]
- CLint scaled at 5 µM [1, 4]: 1790 L/h/kg
- CLint scaled at 5 µM [1, 5]: 847 L/h/kg
- fraction unbound at 4 h, 1 µM ([3]; Table S5, fraction unbound): 0.47
